# Reference: patent US10105357B2, “Indication of antibiotic drugs for preparation of cancer inhibition pharmaceutical composition” (LAUNX BIOMEDICAL CO., LTD., priority 2014, dated 2018)
# Counter-ions that a name gives are not always drawn. Like-named read-outs stand apart in the source and are kept apart here.
# Columns and labels:
# Assay type in all cases: cell-based, human
# [1] = system: HL-60 (Acute Promyelocytic Leukemia); assay: Cell viability analysis, leukemia HL-60; details: Homo sapiens, HL-60, 72 h
# [2] = system: TSGH-8301 (Urinary Bladder Carcinoma); assay: Cell viability analysis, bladder cancer TSGH-8301; details: Homo sapiens, 72 h
# [3] = system: HeLa (Cervix Adenocarcinoma); assay: Cell viability analysis, cervical cancer HeLa; details: Homo sapiens, HeLa, 72 h
# [4] = system: PC3 (p53−) (Prostate Adenocarcinoma); assay: Cell viability analysis, prostate cancer PC3; details: Homo sapiens, 72 h
# [5] = system: LoVo (Colorectal Adenocarcinoma); assay: Cell viability analysis, colon cancer LoVo; details: Homo sapiens, LoVo, 72 h, read-out: cell viability (survival rate), LoVo, drug 10 μM, 72 hours, WST-1, OD450 nm
# [6] = system: HepG2 (Hepatocellular Carcinoma); assay: Cell viability analysis, hepatic cancer HepG2; details: Homo sapiens, HepG2, 72 h
# cancer cell lines = assay: Cell viability analysis (WST-1) on cancer cell lines; details: drug 10 μM, 72 hours, WST-1; Table 3
# [7] = system: MKN-45 (Gastric Adenocarcinoma); assay: Cell viability analysis, gastric cancer MKN-45; details: Homo sapiens, MKN-45, 72 h
# [8] = system: A549 (Lung Adenocarcinoma); assay: Cell viability analysis, lung cancer A549; details: Homo sapiens, A549, 72 h
# [9] = system: MCF7 (Mammary Gland, Adenocarcinoma); assay: Cell viability analysis, breast cancer MCF7; details: Homo sapiens, MCF7, 72 h
# [10] = system: AGS (Gastric Adenocarcinoma); assay: Cell viability analysis, gastric cancer AGS; details: Homo sapiens, 72 h
# [11] = system: A375 (Amelanotic Melanoma); assay: Cell viability analysis, skin cancer A375; details: Homo sapiens, A-375, 72 h
# [12] = system: HI650 (Lung Adenocarcinoma); assay: Cell viability analysis, lung cancer HI650; details: Homo sapiens, NCI-H1650, 72 h
# [13] = read-out: cell viability (survival rate), HL-60, drug 10 μM, 72 hours, WST-1, OD450 nm
# [14] = read-out: cell viability (survival rate), TSGH, drug 10 μM, 72 hours, WST-1, OD450 nm
# [15] = read-out: cell viability (survival rate), HeLa, drug 10 μM, 72 hours, WST-1, OD450 nm
# [16] = read-out: cell viability (survival rate), PC3, drug 10 μM, 72 hours, WST-1, OD450 nm
# [17] = read-out: cell viability (survival rate), HepG2, drug 10 μM, 72 hours, WST-1, OD450 nm
# [18] = read-out: cell viability (survival rate), MKN-45, drug 10 μM, 72 hours, WST-1, OD450 nm
# [19] = read-out: cell viability (survival rate), A549, drug 10 μM, 72 hours, WST-1, OD450 nm
# [20] = read-out: cell viability (survival rate), MCF7, drug 10 μM, 72 hours, WST-1, OD450 nm
# [21] = read-out: cell viability (survival rate), AGS, drug 10 μM, 72 hours, WST-1, OD450 nm
# [22] = read-out: cell viability (survival rate), A375, drug 10 μM, 72 hours, WST-1, OD450 nm
# [23] = read-out: cell viability (survival rate), H1650, drug 10 μM, 72 hours, WST-1, OD450 nm
# [24] = drug 10 μM, 72 hours, WST-1, OD450 nm, read-out: cell viability (survival rate), HL-60
# [25] = drug 10 μM, 72 hours, WST-1, OD450 nm, read-out: cell viability (survival rate), TSGH
# [26] = drug 10 μM, 72 hours, WST-1, OD450 nm, read-out: cell viability (survival rate), HeLa
# [27] = drug 10 μM, 72 hours, WST-1, OD450 nm, read-out: cell viability (survival rate), PC3
# [28] = drug 10 μM, 72 hours, WST-1, OD450 nm, read-out: cell viability (survival rate), HepG2
# [29] = drug 10 μM, 72 hours, WST-1, OD450 nm, read-out: cell viability (survival rate), MKN-45
# [30] = drug 10 μM, 72 hours, WST-1, OD450 nm, read-out: cell viability (survival rate), A549
# [31] = drug 10 μM, 72 hours, WST-1, OD450 nm, read-out: cell viability (survival rate), MCF7
# [32] = drug 10 μM, 72 hours, WST-1, OD450 nm, read-out: cell viability (survival rate), AGS
# [33] = drug 10 μM, 72 hours, WST-1, OD450 nm, read-out: cell viability (survival rate), A375
# [34] = drug 10 μM, 72 hours, WST-1, OD450 nm, read-out: cell viability (survival rate), H1650
SMILES,"viability at 10 µM [1, 13] [%]","viability at 10 µM [2, 14] [%]","viability at 10 µM [3, 15] [%]","viability at 10 µM [4, 16] [%]",viability at 10 µM [5] [%],"viability at 10 µM [6, 17] [%]",inhibition effect on different cancer cell lines (cancer cell lines),"viability at 10 µM [7, 18] [%]","viability at 10 µM [8, 19] [%]","viability at 10 µM [1, 24] [%]","viability at 10 µM [2, 25] [%]","viability at 10 µM [3, 26] [%]","viability at 10 µM [4, 27] [%]","viability at 10 µM [6, 28] [%]","viability at 10 µM [7, 29] [%]","viability at 10 µM [8, 30] [%]","viability at 10 µM [9, 31] [%]","viability at 10 µM [10, 32] [%]","viability at 10 µM [11, 33] [%]","viability at 10 µM [12, 34] [%]",further results
CC(C)NCC(O)c1ccc(O)c(O)c1 (centres unmarked) [Isoprenaline hydrochloride],96.8,81.6,91.1,73.6,80.6,81.4,significant inhibition effect,79.6,56.1,–,–,–,–,–,–,–,–,–,–,–,"viability at 10 µM [9, 20]: 73.2%; viability at 10 µM [10, 21]: 72%; viability at 10 µM [11, 22]: 90%; viability at 10 µM [12, 23]: 39.9%"
COc1c(N2CCNC(C)C2)c(F)cc2c(=O)c(C(=O)O)cn(C3CC3)c12 (centres unmarked) [Gatifloxacin],–,–,–,–,98.3,–,significant inhibition effect,–,–,100,65,84.1,82.2,65.6,84.2,96,130,71.4,63.3,47.2,–
"Nc1ccn(C[C@@H](CO)OCP(=O)(O)O)c(=O)n1 [Cidofovir (Vistide), Cidofovir]",–,–,–,–,82.3,–,significant inhibition effect,–,–,112,49.8,82.1,63.9,97.2,56.9,58.3,78.3,39.6,82.6,53.3,–
CCOc1ccc2nc3cc(N)ccc3c(N)c2c1 [Ethacridine lactate monohydrate],–,–,–,–,50.1,–,significant inhibition effect,–,–,44.1,46.8,39.9,64.6,65.5,49.7,75.1,68.7,38.2,40.1,52.5,–
C[N+]1(C)[C@@H]2C[C@@H](OC(=O)C(O)(c3cccs3)c3cccs3)C[C@H]1[C@@H]1O[C@@H]12 [Tiotropium Bromide hydrate],87.8,54.7,124,83.8,88.7,90.9,significant inhibition effect,86.1,62,–,–,–,–,–,–,–,–,–,–,–,"viability at 10 µM [9, 20]: 80%; viability at 10 µM [10, 21]: 73.1%; viability at 10 µM [11, 22]: 86.3%; viability at 10 µM [12, 23]: 40.9%"
